Experiments:
[1] = test system: rat plasma; assay: Erythrocyte plasma partitioning (rat plasma); format: in vitro ADME; conditions: Method B (erythrocyte plasma partitioning); Wistar rat, male; about 200 μg/l
Description: Ultrafiltration, equilibrium dialysis and the determination of the free fraction of a drug via distribution between erythrocytes and plasma were performed as previously described^8,12.

[2] = test system: rat plasma; assay: Protein binding via distribution between diluted plasma and Transil (rat plasma); format: in vitro ADME; conditions: Method A (Transil); Wistar rat, male; about 200 μg/l; LC/MS-MS or HPLC
Description: Protein binding of all drugs was determined via partitioning between diluted plasma and Transil® in vitro. All incubations were performed in glass tubes. An isotonic potassium phosphate buffer, pH 7.4 (Dulbeccos PBS, Sigma D8534) was used for diluting the plasma.
The total incubation volume was generally between 0.3 and 1 ml. The diluted plasma (150 to 980 μl) of the test species was pipetted into glass tubes and Transil® (10 to 300 μl) was added. The test substance dissolved in a small volume of a suitable solvent was added to the Transil®-plasma suspensions.
The degree of the dilution and the Transil®-volume should be chosen with respect to the expected fu value. […]
The radioactivity concentration in the suspension was determined directly after incubation. The radioactivity concentration (or the drug concentration in the case of HPLC or LC/MS-MS analytics) in plasma was determined after centrifugation.
The free fraction in diluted plasma was calculated as the ratio of the partition coefficients for the Transil®/plasma′ (MAplasma) and the Transil®/buffer distribution (MAbuffer).
In a second experiment, the total amount in the Transil®-plasma suspension and the concentration in diluted plasma, Cplasma′, were determined. The partitioning between Transil® and the diluted plasma (the apparent membrane affinity in diluted plasma), MAplasma′, was calculated as: [formula] […]

fu [1]: 1.49%
fu [2]: 1.62%
SMILES: O=C(NC[C@H]1CN(c2ccc(N3CCOCC3=O)cc2)C(=O)O1)c1ccc(Cl)s1 [Drug III]

Reference: US20070111208A1, “Determination of free fractions” (Bayer HealthCare AG, priority 2003, published 2007)
